Several values for one entry are separate records, joined by “and”; a condition that tells them apart may be missing. Equal entries are not always repeated. Inconclusive results and toxic doses are left out. How the source made its calls: active means survival T/C of 150% or more; inactive means T/C below 125% in these data.
Test system: P388 leukemia ip, CD2F1 mice, survival T/C
Assay: NCI In Vivo Anticancer Drug Screen. Data for tumor model P388 Leukemia (intraperitoneal) in CD2F1 (CDF1) mice
Conditions: endpoint: median survival time, higher = longer survival
Procedure, shortened: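 Mice carrying the transplanted tumor received test compound or vehicle. Survival was recorded in each group, and the value is the treated-group measurement divided by that of the vehicle-treated control group.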

[1] = dose: 25.0 mg/kg/injection, schedule: Q01DX009 (ip), vehicle: other
[2] = dose: 50.0 mg/kg/injection, schedule: Q01DX009 (ip), vehicle: other
[3] = dose: 25.0 mg/kg/injection, schedule: Q01DX005 (ip), vehicle: Klucel (hydroxypropylcellulose) (HPC)
[4] = dose: 50.0 mg/kg/injection, schedule: Q01DX005 (ip), vehicle: Klucel (hydroxypropylcellulose) (HPC)
[5] = dose: 100.0 mg/kg/injection, schedule: Q01DX005 (ip), vehicle: Klucel (hydroxypropylcellulose) (HPC)
[6] = dose: 200.0 mg/kg/injection, schedule: Q01DX005 (ip), vehicle: Klucel (hydroxypropylcellulose) (HPC)
[7] = dose: 60.0 mg/kg/injection, schedule: Q01DX005 (ip), vehicle: saline with Tween-80
[8] = dose: 120.0 mg/kg/injection, schedule: Q01DX005 (ip), vehicle: saline with Tween-80
[9] = dose: 240.0 mg/kg/injection, schedule: Q01DX005 (ip), vehicle: saline with Tween-80
[10] = dose: 60.0 mg/kg/injection, schedule: Q01DX005 (ip), vehicle: Klucel (hydroxypropylcellulose) (HPC)
[11] = dose: 120.0 mg/kg/injection, schedule: Q01DX005 (ip), vehicle: Klucel (hydroxypropylcellulose) (HPC)

Measured: T/C

Cc1coc2c1C1OC(=O)C3(C/C=C\C(C)C2)OC13 (stereo not drawn)
inactive: dose: 5625.0 micrograms/kg/injection, schedule: Q01DX005 (ip), vehicle: Klucel (hydroxypropylcellulose) (HPC) 100 % of control | dose: 11250.0 micrograms/kg/injection, schedule: Q01DX005 (ip), vehicle: Klucel (hydroxypropylcellulose) (HPC) 100 % of control | dose: 22500.0 micrograms/kg/injection, schedule: Q01DX005 (ip), vehicle: Klucel (hydroxypropylcellulose) (HPC) 100 % of control

O=[N+]([O-])c1ccc(N/N=C(/C(=N/Nc2ccc([N+](=O)[O-])cc2)c2ccccc2)c2ccccc2)cc1
inactive: [1] 87 % of control | [2] 89 % of control | dose: 100.0 mg/kg/injection, schedule: Q01DX009 (ip), vehicle: other 93 % of control | dose: 100.0 mg/kg/injection, schedule: Q01DX009 (ip), vehicle: saline sonified 90 % of control | dose: 200.0 mg/kg/injection, schedule: Q01DX009 (ip), vehicle: other 93 % of control | dose: 200.0 mg/kg/injection, schedule: Q01DX009 (ip), vehicle: saline sonified 86 % of control | dose: 400.0 mg/kg/injection, schedule: Q01DX009 (ip), vehicle: other 93 % of control | dose: 400.0 mg/kg/injection, schedule: Q01DX009 (ip), vehicle: saline sonified 90 % of control

CCOC(=O)Nc1nc2ccccc2n1CN1CCCCC1
inactive: [3] 97 % of control | [4] 100 % of control | [5] 106 % of control | [6] 115 % of control

CC(C)(C)N=C(CCC(C#N)(C#N)CCC(=NC(C)(C)C)Nc1ccccc1C#N)Nc1ccccc1C#N
inactive: dose: 50.0 mg/kg/injection, schedule: Q01DX009 (ip), vehicle: saline with Tween-80 95 % of control | dose: 100.0 mg/kg/injection, schedule: Q01DX009 (ip), vehicle: saline with Tween-80 92 % of control | dose: 200.0 mg/kg/injection, schedule: Q01DX009 (ip), vehicle: saline with Tween-80 101 % of control

O=[N+]([O-])c1ccc(N/N=C(\CI)c2ccccc2)c([N+](=O)[O-])c1
inactive: dose: 75.0 mg/kg/injection, schedule: Q01DX001 (ip), vehicle: saline with Tween-80 105 % of control | dose: 150.0 mg/kg/injection, schedule: Q01DX001 (ip), vehicle: saline with Tween-80 105 % of control | dose: 300.0 mg/kg/injection, schedule: Q01DX001 (ip), vehicle: saline with Tween-80 120 % of control

O=[N+]([O-])c1cccnc1-n1nnc2c([N+](=O)[O-])cccc21
inactive: [7] 99 % of control | [8] 100 % of control | [9] 102 % of control

Cc1cc(O)c(C(=O)/C=C/c2ccnc3ccccc23)c(=O)o1
inactive: [10] 104 % of control | [11] 108 % of control

CC/C(=C(\CC)c1ccc(OCCN(C)C)cc1)c1ccc(OCCN(C)C)cc1
inactive: dose: 6.25 mg/kg/injection, schedule: Q01DX005 (ip), vehicle: saline 104 % of control | dose: 12.5 mg/kg/injection, schedule: Q01DX005 (ip), vehicle: saline 98 % of control

CC(C)(C)CC(C)(C)c1ccc(O)c(O)c1
inactive: dose: 25.0 mg/kg/injection, schedule: Q01DX005 (ip), vehicle: saline 100 % of control | dose: 50.0 mg/kg/injection, schedule: Q01DX005 (ip), vehicle: saline 101 % of control | dose: 100.0 mg/kg/injection, schedule: Q01DX005 (ip), vehicle: saline 106 % of control | dose: 100.0 mg/kg/injection, schedule: Q01DX009 (ip), vehicle: saline 106 % of control and 94 % of control | dose: 200.0 mg/kg/injection, schedule: Q01DX005 (ip), vehicle: saline 110 % of control | dose: 400.0 mg/kg/injection, schedule: Q01DX009 (ip), vehicle: saline 94 % of control

O=C(NC(Cc1ccccc1)C(=O)CCl)OCc1ccccc1 (stereo not drawn)
inactive: [1] 107 % of control | dose: 25.0 mg/kg/injection, schedule: Q04DX003 (ip), vehicle: saline with Tween-80 115 % of control | [2] 105 % of control | dose: 50.0 mg/kg/injection, schedule: Q04DX003 (ip), vehicle: saline with Tween-80 111 % of control | dose: 100.0 mg/kg/injection, schedule: Q04DX003 (ip), vehicle: saline with Tween-80 119 % of control

O=[N+]([O-])CC1CCCCC1O (stereo not drawn)
inactive: dose: 6.25 mg/kg/injection, schedule: Q01DX009 (ip), vehicle: saline with Tween-80 100 % of control | dose: 12.5 mg/kg/injection, schedule: Q01DX009 (ip), vehicle: saline with Tween-80 100 % of control | dose: 25.0 mg/kg/injection, schedule: Q01DX009 (ip), vehicle: saline with Tween-80 90 % of control

COc1ccc(C=NC(C)(C)CO)cc1OC
inactive: [3] 100 % of control | [4] 109 % of control | [5] 101 % of control | [6] 100 % of control

CCC[CH2][Sn]([CH2]CCC)([S]CCS(=O)(=O)O)[S]CCS(=O)(=O)O (tested in a mixture with another compound)
inactive: [10] 105 % of control | [11] 105 % of control | dose: 240.0 mg/kg/injection, schedule: Q01DX005 (ip), vehicle: Klucel (hydroxypropylcellulose) (HPC) 115 % of control

OCCCCC/C=C/CCCCCCC1C=CCC1 (stereo not drawn)
inactive: dose: 100.0 mg/kg/injection, schedule: Q01DX001 (ip), vehicle: saline 99 % of control | dose: 200.0 mg/kg/injection, schedule: Q01DX001 (ip), vehicle: saline 99 % of control | dose: 400.0 mg/kg/injection, schedule: Q01DX001 (ip), vehicle: saline 99 % of control

C[O+]=c1ccc2ccc(-c3ccccc3)sc-2c1
inactive: [10] 106 % of control | [11] 105 % of control

COC(=O)c1nc2[nH]n(-c3ccccc3)c(=O)c2c(C(=O)OC)c1C(C)C(=O)c1ccccc1 (stereo not drawn)
inactive: [7] 100 % of control | [8] 109 % of control | [9] 94 % of control

CSCCC(C(=O)O)N1C(=O)C=CC1=O (stereo not drawn)
inactive: dose: 11.25 mg/kg/injection, schedule: Q01DX009 (ip), vehicle: saline with Tween-80 97 % of control | dose: 22.5 mg/kg/injection, schedule: Q01DX009 (ip), vehicle: saline with Tween-80 97 % of control | dose: 45.0 mg/kg/injection, schedule: Q01DX009 (ip), vehicle: saline with Tween-80 100 % of control and 88 % of control

O=C1Oc2nc3ccccc3cc2/C1=C/c1ccccc1
inactive: dose: 100.0 mg/kg/injection, schedule: Q04DX002 (ip), vehicle: saline with Tween-80 89 % of control | dose: 200.0 mg/kg/injection, schedule: Q04DX002 (ip), vehicle: saline with Tween-80 92 % of control | dose: 400.0 mg/kg/injection, schedule: Q04DX002 (ip), vehicle: saline with Tween-80 99 % of control

— PubChem BioAssay AID330 (DTP/NCI, 2004)
